Source: US8148391B2 (Cephalon, Inc., priority 2006, dated 2012)
Read-outs that look alike come from different tables or passages of the source.

Tests used:
[1] = biological target: T1, baculovirus-expressed ALK (Homo sapiens, UniProt Q9UM73); experiment: ALK Kinase Assay (ELISA-type, time-resolved fluorescence); format: biochemical
T1 construct: host or cells: baculovirus expression system
How it was run: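 Plates coated with phospholipase C-γ substrate (10 μg/mL in TBS); reaction started with 30 ng/ml ALK and run 15 min at 37° C. Phosphorylated substrate detected with Eu-N1-labeled PT66 antibody. IC50 from sigmoidal variable-slope fit of percent inhibition vs log concentration.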

[2] = biological target: T2, c-Met (cytoplasmic domain) (Homo sapiens, UniProt P08581); experiment: c-Met Kinase Assay (same methods as for ALK, with modifications); format: biochemical
T2 construct: 10 ng/mL c-Met (cytoplasmic domain, Invitrogen Corporation #PV3143); purchased Invitrogen Corporation PV3143
T2 sequence (P08581 956-1390 limits assumed): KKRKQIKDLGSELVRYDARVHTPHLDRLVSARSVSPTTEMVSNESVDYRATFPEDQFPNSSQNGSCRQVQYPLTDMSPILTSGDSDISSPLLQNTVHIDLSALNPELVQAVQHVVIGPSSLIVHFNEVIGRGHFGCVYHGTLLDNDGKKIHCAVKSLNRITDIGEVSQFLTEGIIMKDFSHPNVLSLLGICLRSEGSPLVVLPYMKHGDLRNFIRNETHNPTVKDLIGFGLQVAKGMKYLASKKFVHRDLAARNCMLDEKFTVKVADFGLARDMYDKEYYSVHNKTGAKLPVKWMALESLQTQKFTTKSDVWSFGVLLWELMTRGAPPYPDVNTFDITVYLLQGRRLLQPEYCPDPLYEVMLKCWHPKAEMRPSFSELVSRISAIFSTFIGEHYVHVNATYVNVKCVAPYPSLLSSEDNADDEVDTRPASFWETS
How it was run: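 Plates were coated with phospholipase C-γ substrate (10 μg/mL) in TBS, and the reaction was started with 10 ng/mL c-Met cytoplasmic domain and run 15 min at 37 °C. Phosphoproduct was detected with Eu-N1-labelled PT66 antibody. IC50 came from a variable-slope sigmoidal fit of percent inhibition vs log concentration.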

[3] = 1 μM ATP (Km level), read-out: ALK Activity (ALK Kinase Inhibition, IC50)
[4] = 1 μM ATP (Km level), read-out: cMet Activity (c-Met Kinase Inhibition, IC50)
[5] = ALK kinase inhibition, 1 μM ATP, read-out: ALK Activity
[6] = c-Met kinase inhibition, 1 μM ATP, read-out: cMet Activity
[7] = ALK kinase inhibition, 1 μM ATP (Km level), read-out: ALK Activity
[8] = c-Met kinase inhibition, 1 μM ATP (Km level), read-out: cMet Activity
[9] = 1 μM ATP (Km level), 30 ng/ml ALK, 37° C., 15 minutes, read-out: ALK Activity (ALK kinase inhibition, IC50 class)
[10] = 1 μM ATP (Km level), 10 ng/mL c-Met, read-out: cMet Activity (c-Met kinase inhibition, IC50 class)

T1 sequence (Q9UM73 19-1620): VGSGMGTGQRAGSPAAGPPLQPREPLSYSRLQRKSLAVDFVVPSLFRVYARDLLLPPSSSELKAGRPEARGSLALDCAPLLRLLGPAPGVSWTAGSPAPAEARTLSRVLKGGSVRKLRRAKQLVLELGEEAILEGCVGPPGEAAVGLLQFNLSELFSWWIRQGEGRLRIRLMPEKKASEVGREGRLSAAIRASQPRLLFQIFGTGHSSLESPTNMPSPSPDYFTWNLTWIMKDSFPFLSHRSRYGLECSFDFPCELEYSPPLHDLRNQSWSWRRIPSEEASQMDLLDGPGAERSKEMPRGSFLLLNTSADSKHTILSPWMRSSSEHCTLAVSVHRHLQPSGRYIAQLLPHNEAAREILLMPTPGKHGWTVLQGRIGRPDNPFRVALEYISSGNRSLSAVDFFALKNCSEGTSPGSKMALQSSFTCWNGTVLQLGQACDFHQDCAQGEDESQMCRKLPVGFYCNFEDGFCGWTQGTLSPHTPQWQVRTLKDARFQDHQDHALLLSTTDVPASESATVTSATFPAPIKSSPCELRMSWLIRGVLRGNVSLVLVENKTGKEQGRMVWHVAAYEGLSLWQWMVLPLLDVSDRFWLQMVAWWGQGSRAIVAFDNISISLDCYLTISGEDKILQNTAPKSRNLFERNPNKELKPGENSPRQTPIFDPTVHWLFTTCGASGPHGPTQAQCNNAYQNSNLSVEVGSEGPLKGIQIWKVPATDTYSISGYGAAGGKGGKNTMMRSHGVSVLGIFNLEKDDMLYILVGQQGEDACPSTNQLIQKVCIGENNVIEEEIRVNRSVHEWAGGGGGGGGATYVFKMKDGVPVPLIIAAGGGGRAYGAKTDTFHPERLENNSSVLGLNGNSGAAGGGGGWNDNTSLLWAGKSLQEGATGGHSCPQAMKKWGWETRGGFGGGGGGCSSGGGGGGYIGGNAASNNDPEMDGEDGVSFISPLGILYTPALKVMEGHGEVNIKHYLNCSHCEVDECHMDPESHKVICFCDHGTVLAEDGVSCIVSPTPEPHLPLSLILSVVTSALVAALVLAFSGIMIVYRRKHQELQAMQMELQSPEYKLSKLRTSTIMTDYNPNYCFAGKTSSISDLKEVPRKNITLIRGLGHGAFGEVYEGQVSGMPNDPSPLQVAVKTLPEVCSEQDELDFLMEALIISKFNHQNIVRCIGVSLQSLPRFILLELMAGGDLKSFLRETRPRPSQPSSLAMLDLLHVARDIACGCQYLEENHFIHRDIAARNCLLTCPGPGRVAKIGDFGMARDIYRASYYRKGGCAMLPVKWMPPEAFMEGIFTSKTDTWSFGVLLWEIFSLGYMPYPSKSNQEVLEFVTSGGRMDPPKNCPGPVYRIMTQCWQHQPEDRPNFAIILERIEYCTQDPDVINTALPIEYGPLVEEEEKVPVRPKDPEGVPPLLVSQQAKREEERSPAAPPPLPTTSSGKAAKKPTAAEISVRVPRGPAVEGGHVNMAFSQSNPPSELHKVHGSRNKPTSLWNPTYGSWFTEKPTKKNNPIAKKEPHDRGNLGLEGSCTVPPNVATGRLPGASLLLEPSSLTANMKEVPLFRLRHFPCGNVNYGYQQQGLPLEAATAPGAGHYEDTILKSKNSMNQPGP

IC50 [1, 3] [nM]	IC50 [2, 4] [µM]	IC50 [1, 5] [nM]	IC50 [2, 6] [µM]	Compound	also measured
100 to 1000	> 10			COc1ccc(Nc2ncc(Cl)c(Nc3ccccc3S(=O)(=O)C(C)C)n2)c2c1CCCC(N1CCOCC1)C2 (stereo not shown) [Example 946, 5-Chloro-N(2)-(4-methoxy-8-morpholin-4-yl-6,7,8,9-tetrahydro-5H-benzocyclohepten-1-yl)-N(4)-[2-(propane-2-sulfonyl)-phenyl]-pyrimidine-2,4-diamine]	
		100 to 1000	> 10	Cc1cccc(C(N)=O)c1Nc1nc(Nc2ccc3c(c2)N(C(C)C)C(=O)CCC3)ncc1Cl [Example 1475, 2-[5-Chloro-2-(1-isopropyl-2-oxo-2,3,4,5-tetrahydro-1H-benzo[b]azepin-8-ylamino)-pyrimidin-4-ylamino]-3-methyl-benzamide]	
		< 100	> 10	COc1cc2c(cc1Nc1ncc(Cl)c(N[C@@H]3CCCC[C@H]3NS(C)(=O)=O)n1)CCN(CC(=O)N1CCOCC1)CC2 [Example 1528, N-((1R,2R)-2-{5-Chloro-2-[8-methoxy-3-(2-morpholin-4-yl-2-oxo-ethyl)-2,3,4,5-tetrahydro-1H-3-benzazepin-7-ylamino]-pyrimidin-4-ylamino}-cyclohexyl)-methanesulfonamide]	
		< 100	> 10	CCN1CC(=O)Nc2cc(Nc3ncc(Cl)c(N[C@@H]4CCCC[C@H]4NS(C)(=O)=O)n3)c(OC)cc2C1 [Example 1658, N-{(1R,2R)-2-[5-Chloro-2-(4-ethyl-7-methoxy-2-oxo-2,3,4,5-tetrahydro-1H-benzo[e][1,4]diazepin-8-ylamino)-pyrimidin-4-ylamino]-cyclohexyl}-methane-sulfonamide]	
				N-(2-{5-Chloro-2-[3-(2-methoxy-ethyl)-2,3,4,5-tetrahydro-1H-benzo[d]azepin-7-ylamino]-pyrimidin-4-ylamino}-phenyl)-methanesulfonamide [Example 37]	IC50 [1, 7]: < 100 nM; IC50 [2, 8]: 1 to 10 µM
		< 100	< 0.1	C=CCOc1cccc(F)c1Nc1nc(Nc2ccc3c(c2)CCOC(=O)N3C)ncc1Cl [Example 1780, 2-[4-(2-Allyloxy-6-fluoro-phenylamino)-5-chloro-pyrimidin-2-ylamino]-5-methyl-8,9-dihydro-5H-7-oxa-5-aza-benzocyclohepten-6-one]	
< 100	1 to 10			COc1c(Nc2ncc(Cl)c(Nc3ccccc3-n3cccn3)n2)ccc2c1CCC(N1CCOCC1)CC2 (stereo not shown) [Example 901, 5-Chloro-N*2*-(1-methoxy-7-morpholin-4-yl-6,7,8,9-tetrahydro-5H-benzocyclohepten-2-yl)-N*4*-(2-pyrazol-1-yl-phenyl)-pyrimidine-2,4-diamine]	
				CNC(=O)c1ccccc1Nc1nc(Nc2ccc3c(c2)CCC(N2CCOCC2)CC3)ncc1Cl (stereo not shown) [Example 178, 2-[5-Chloro-2-(7-morpholin-4-yl-6,7,8,9-tetrahydro-5H-benzocyclohepten-2-ylamino)-pyrimidin-4-ylamino]-N-methyl-benzamide]	IC50 [1, 7]: < 100 nM; IC50 [2, 8]: < 0.1 µM
				CCN1CCc2ccc(Nc3ncc(Cl)c(NCCCC(=O)NC)n3)cc2CC1 [Example 212, 4-[5-Chloro-2-(3-ethyl-2,3,4,5-tetrahydro-1H-benzo[d]azepin-7-ylamino)-pyrimidin-4-ylamino]-N-methyl-butyramide]	IC50 [1, 7]: 1000 to 10000 nM; IC50 [2, 8]: 1 to 10 µM
		< 100	< 0.1	CNC(=O)c1ccccc1Nc1nc(Nc2ccc3c(c2)CCC(=O)NC3(C)C)ncc1Cl [Example 1827, 2-(5-Chloro-2-(1,1-dimethyl-3-oxo-2,3,4,5-tetrahydro-1H-benzo[c]azepin-7-ylamino)pyrimidin-4-ylamino)-N-methylbenzamide]	
< 100	> 10			COc1cc2c(cc1Nc1ncc(Cl)c(N[C@@H]3CCCC[C@H]3NS(C)(=O)=O)n1)CCN(CC(F)F)CC2 [Example 762, N-((1R,2R)-2-{5-Chloro-2-[3-(2,2-difluoro-ethyl)-8-methoxy-2,3,4,5-tetrahydro-1H-benzo[d]azepin-7-ylamino]-pyrimidin-4-ylamino}-cyclohexyl)-methanesulfonamide]	
				CCN1C(=O)[C@H](NC(=O)C2CC2)CCc2c1ccc(Nc1ncc(Cl)c(N[C@H]3[C@@H](C(N)=O)[C@@H]4C=C[C@H]3C4)n1)c2OC (single isomer, unassigned) [Example 1357]	IC50 [1, 9]: < 100 nM; IC50 [2, 10]: > 10 µM
				COCCN1CCc2ccc(Nc3ncc(Cl)c(Nc4c(C)cccc4OCC#N)n3)cc2CC1 [Example 1245, (2-{5-Chloro-2-[3-(2-methoxy-ethyl)-2,3,4,5-tetrahydro-1H-3-benzazepin-7-ylamino]-pyrimidin-4-ylamino}-3-methyl-phenoxy)-acetonitrile]	IC50 [1, 9]: 100 to 1000 nM; IC50 [2, 10]: 0.1 to 1 µM
100 to 1000	> 10			COc1cc2c(cc1Nc1ncc(Cl)c(N[C@@H]3CCCC[C@H]3NS(C)(=O)=O)n1)N(C)C(=O)CN(CC1CC1)C2 [Example 746, N-{(1R,2R)-2-[5-Chloro-2-(4-cyclopropylmethyl-7-methoxy-1-methyl-2-oxo-2,3,4,5-tetrahydro-1H-benzo[e][1,4]diazepin-8-ylamino)-pyrimidin-4-ylamino]-cyclohexyl}-methanesulfonamide]	
< 100	> 10			COc1cc2c(cc1Nc1ncc(Cl)c(Nc3ccccc3S(=O)(=O)N(C)C)n1)CCN(CC(F)F)CC2 [Example 822, 2-{5-Chloro-2-[3-(2,2-difluoro-ethyl)-8-methoxy-2,3,4,5-tetrahydro-1H-benzo[d]azepin-7-ylamino]-pyrimidin-4-ylamino}-N,N-dimethyl-benzenesulfonamide]	
				CCN1CCN(C(C)=O)c2cc(Nc3ncc(Cl)c(Nc4c(F)cccc4C(=O)NC)n3)ccc2C1 [Example 1879, 2-[2-(1-Acetyl-4-ethyl-2,3,4,5-tetrahydro-1H-benzo[e][1,4]diazepin-8-ylamino)-5-chloro-pyrimidin-4-ylamino]-3-fluoro-N-methyl-benzamide]	IC50 [1, 7]: 100 to 1000 nM; IC50 [2, 8]: < 0.1 µM
				COc1cc2c(cc1Nc1ncc(Cl)c(Nc3ccccc3S(=O)(=O)N3CCC(O)C3)n1)CCN(CC(=O)N(C)C)CC2 (stereo not shown) [Example 1188, 2-(7-{5-Chloro-4-[2-(3-hydroxy-pyrrolidine-1-sulfonyl)-phenylamino]-pyrimidin-2-ylamino}-8-methoxy-1,2,4,5-tetrahydro-benzo[d]azepin-3-yl)-N,N-dimethyl-acetamide]	IC50 [1, 9]: < 100 nM; IC50 [2, 10]: 1 to 10 µM
		> 10000	> 10	CCN1CCNC(=O)c2ccc(Nc3ncc(Cl)c(Nc4ccccc4OCCN4CCOCC4)n3)cc21 [Example 1455, 8-{5-Chloro-4-[2-(2-morpholin-4-yl-ethoxy)-phenylamino]-pyrimidin-2-ylaminol}-1-ethyl-1,2,3,4-tetrahydro-benzo[e][1,4]diazepin-5-one]	
				CN(CCC#N)c1cccc(F)c1Nc1nc(Nc2ccc3c(c2)C(C)(C)CCC(=O)N3)ncc1Cl [Example 1266, 3-({2-[5-Chloro-2-(5,5-dimethyl-2-oxo-2,3,4,5-tetrahydro-1H-1-benzazepin-7-ylamino)-pyrimidin-4-ylamino]-3-fluoro-phenyl}-methyl-amino)-propionitrile]	IC50 [1, 9]: < 100 nM; IC50 [2, 10]: 1 to 10 µM
< 100	> 10			CNC(=O)c1ccccc1Nc1nc(Nc2ccc3c(c2OC)CCC(=O)CC3)ncc1Cl [Example 868, 2-[5-Chloro-2-(1-methoxy-7-oxo-6,7,8,9-tetrahydro-5H-benzocyclohepten-2-ylamino)-pyrimidin-4-ylamino]-N-methyl-benzamide]	
